Data taken from patent publication US10501482B2, “Compounds for treating spinal muscular atrophy” (Hoffmann-La Roche Inc., priority 2013, dated 2019).
Counter-ions that a name gives are not always drawn.

Key:
SMN protein = SMN protein assay (HTRF) in cultured SMA patient fibroblast cells; format: cell-based; details: SMA Type 1 human fibroblasts GM03813, 48 hours; for EC1.5x SMN protein (EC1.5x concentration for SMN protein expression): 7-point concentration curve, concentration giving 1.5 times SMN protein vs vehicle; for max. fold increase (maximum fold increase of SMN protein): 7-point concentration data, fold vs vehicle control
Outline: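 SMA patient fibroblasts seeded at 5,000 cells/well, treated 48 h at 37 °C in triplicate per concentration (7-point series). Lysed in RIPA with protease inhibitors; SMN read by HTRF (anti-SMN d2/kryptate, overnight RT), 665/620 nm ratio. ΔF vs blank, expressed as fold over vehicle; EC1.5x and maximum fold increase derived.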

[1] = test system: full length SMN2 minigene mRNA (FL SMN2mini) in HEK293H cells stably transfected with the SMN2-A minigene construct; experiment: SMN2 minigene mRNA splicing RT-qPCR assay in cultured cells; format: cell-based; details: Homo sapiens, HEK293-H, 24 hours, 7-point concentration curve, concentration giving 1.5-fold FL SMN2mini mRNA vs vehicle, read-out: EC1.5x minigene (EC1.5x concentration for production of full length SMN2 minigene mRNA)
Outline: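 Stably transfected HEK293H cells, 10,000/well in DMEM/10% FBS with hygromycin, attached 6 h, then received compound for 24 h at 37° C in duplicate at 7 concentrations. Multiplex RT-qPCR with GAPDH used primers that detect only the minigene. An efficiency-corrected ΔΔCt, GAPDH- and vehicle-normalized, gave EC1.5x concentrations.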

SMILES | EC1.5x SMN protein (EC1.5x concentration for SMN protein expression) (SMN protein) [µM] | max. fold increase (maximum fold increase of SMN protein) (SMN protein) | EC (1.5-fold) [1] [µM]
Cc1cn2cc(NC(=O)c3ccc(N4CCNC(C)C4)cc3F)cc(Cl)c2n1 (racemic) [Example 54, rac-N-(8-chloro-2-methylimidazo-[1,2-a]pyridin-6-yl)-2-fluoro-4-(3-methylpiperazin-1-yl)benzamide dihydrochloride] | 0.056 | 1.8217 | 0.0128
Cc1cn2cc(NC(=O)c3ccc(N4CCN5CCC[C@H]5C4)cc3F)cc(C(F)(F)F)c2n1 [Example 35, (S)-2-fluoro-4-(hexahydro-pyrrolo[1,2-a]-pyrazin-2(1H)-yl)-N-(2-methyl-8-(trifluoro-methyl)imidazo-[1,2-a]pyridin-6-yl]benzamide] | 1.2664 | 1.6275 | 0.202
Cc1cn2cc(NC(=O)c3c(F)cc(N4CCNC(C)C4)cc3F)cc(F)c2n1.Cl (racemic) [Example 49, rac-2,6-difluoro-N-(8-fluoro-2-methyl-imidazo[1,2-a]-pyridin-6-yl)-4-(3-methylpiperazin-1-yl)benzamide hydrochloride] | 0.1733 | 1.658 | 0.0107
Cc1cn2cc(NC(=O)c3ccc(N4CCNC(C)C4)cc3F)cc(F)c2n1 (racemic) [Example 39, rac-2-fluoro-N-(8-fluoro-2-methyl-imidazo[1,2-a]-pyridin-6-yl)-4-(3-methylpiperazin-1-yl)benzamide dihydrochloride] | 0.0147 | 1.8791 | 0.0168
Cc1cn2cc(NC(=O)c3cnc(N4CCNCC4)c(C)c3)cc(F)c2n1 [Example 67, N-(8-fluoro-2-methylimidazo[1,2-a]pyridin-6-yl)-5-methyl-6-(piperazin-1-yl)nicotinamide] | 0.866 | 1.6552 | 0.318
Cc1cn2cc(NC(=O)c3ccc(C4CCNCC4)cc3F)cc(F)c2n1.Cl [Example 81, 2-fluoro-N-(8-fluoro-2-methylimidazo[1,2-a]pyridin-6-yl)-4-(piperidin-4-yl)benzamide hydrochloride] | 0.2723 | 1.6719 | 0.0374
Cc1cn2cc(NC(=O)c3ccc(N4CCNCC4)cc3F)cc(F)c2n1 [Example 40, 2-fluoro-N-(8-fluoro-2-methyl-imidazo[1,2-a]-pyridin-6-yl)-4-(piperazin-1-yl)benzamide dihydrochloride] | 0.0276 | 1.7607 | 0.0108
Cc1cn2cc(NC(=O)c3ccc(N4CCNCC4)nc3)ccc2n1 [Example 14, N-(2-methyl-imidazo[1,2-a]-pyridin-6-yl)-6-(piperazin-1-yl)nicotinamide] | 0.7944 | 1.5912 | 0.231
Cc1cn2cc(NC(=O)c3ccc(N4CC(C)NC(C)C4)nc3)cc(C(F)(F)F)c2n1 (stereo not drawn) [Example 22, 6-(3,5-dimethyl-piperazin-1-yl)-N-(2-methyl-8-(trifluoromethyl)-imidazo[1,2-a]-pyridin-6-yl)-nicotinamide] | 0.4468 | 1.7566 | 0.263
Cc1nc2c(F)cc(NC(=O)c3ccc(N4CC(C)NC(C)C4)cc3)cc2o1 (stereo not drawn) [Example 30, 4-(3,5-dimethyl-piperazin-1-yl)-N-(4-fluoro-2-methyl-benzo[d]oxazol-6-yl)benzamide] | 0.7612 | 1.6734 | 0.41
Cc1cn2cc(NC(=O)c3cnc(N4CCNCC4)cc3F)cc(F)c2n1 [Example 68, 4-fluoro-N-(8-fluoro-2-methylimidazo[1,2-a]pyridin-6-yl)-6-(piperazin-1-yl)nicotinamide] | 0.057 | 1.6943 | 0.0285
Cc1nc2c(F)cc(NC(=O)c3ccc(N4CCNC(C)C4)cc3)cc2o1 (racemic) [Example 29, rac-N-(4-fluoro-2-methylbenzo[d]-oxazol-6-yl)-4-(3-methylpiperazin-1-yl)benzamide] | 0.4618 | 1.632 | 0.267
CCN1CCN(c2ccc(C(=O)Nc3cn4cc(C)nc(C)c4n3)cn2)CC1 [Example 8, N-(6,8-dimethyl-imidazo[1,2-a]-pyrazin-2-yl)-6-(4-ethyl-piperazin-1-yl)nicotinamide] | 0.5175 | 1.7677 | 0.201
Cc1cn2cc(NC(=O)c3ccc(N4CC5(CNC5)C4)nc3)ccc2n1 [Example 16, N-(2-methyl-imidazo[1,2-a]-pyridin-6-yl)-6-(2,6-diazaspiro-[3,3]heptan-2-yl)nicotinamide hydrochloride] | 1.1992 | 1.6598 | 1.04
Cc1cn2cc(NC(=O)c3ccc(N4CCN[C@@H](C)C4)cc3F)cc(F)c2n1 [Example 50, (S)-2-fluoro-N-(8-fluoro-2-methyl-imidazo[1,2-a]-pyridin-6-yl)-4-(3-methylpiperazin-1-yl)benzamide hydrochloride] | 0.0344 | 1.6607 | 0.0068
Cc1cn2cc(NC(=O)c3ccc(N4CCN[C@H](C)C4)cc3F)cc(F)c2n1 [Example 51, (R)-2-fIuoro-N-(8-fluoro-2-methyl-imidazo[1,2-a]-pyridin-6-yl)-4-(3-methylpiperazin-1-yl)benzamide hydrochloride] | 0.0561 | 1.7266 | 0.0084
Cc1cn2cc(NC(=O)c3ccc(C4=CCNCC4)cn3)ccc2n1 [Example 63, N-(2-methyl-imidazo[1,2-a]-pyridin-6-yl)-5-(1,2,3,6-tetra-hydropyridin-4-yl)picolinamide dihydrochloride] | 1.0431 | 1.6807 | 0.16
Cc1nc2c(F)cc(NC(=O)c3ccc(N4CC(C)NC(C)C4)nc3)cc2o1 (stereo not drawn) [Example 23, 6-(3,5-dimethyl-piperazin-1-yl)-N-(4-fluoro-2-methylbenzo[d]-oxazol-6-yl)-nicotinamide] | 0.5092 | 1.6942 | 0.201
Cc1cn2cc(NC(=O)c3ccc(N4CCNC(C)C4)cn3)nc2c(C)n1 (racemic) [Example 10, rac-N-(6,8-dimethyl-imidazo[1,2-a]-pyrazin-2-yl)-5-(3-methyl-piperazin-1-yl)picolinamide] | 0.329 | 1.735 | 0.665
Cc1cn2cc(NC(=O)c3ncc(N4CCNC(C)C4)cc3F)cc(Cl)c2n1 (racemic) [Example 56, rac-N-(8-chloro-2-methylimidazo[1,2-a]pyridin-6-yl)-3-fluoro-5-(3-methyl-piperazin-1-yl)-picolinamide dihydrochloride] | 0.07 | 1.7299 | 0.017
Cc1cn2cc(NC(=O)c3ccc(N4CCNC(C)C4)cn3)ccc2n1 (racemic) [Example 17, rac-N-(2-methyl-imidazo[1,2-a]-pyridin-6-yl)-5-(3-methyl-piperazin-1-yl)-picolinamide] | 0.5022 | 1.6966 | 0.233
Cc1nc2c(F)cc(NC(=O)c3ccc(N4CCN(C)CC4)nc3)cc2o1 [Example 24, N-(4-fluoro-2-methylbenzo[d]-oxazol-6-yl)-6-(4-methylpiperazin-1-yl)nicotinamide] | 1.2616 | 1.756 | 0.649
Cc1cn2cc(NC(=O)c3ccc(N4CCNC(C)C4)nc3)nc2c(C)n1 (racemic) [Example 7, rac-N-(6,8-dimethyl-imidazo[1,2-a]-pyrazin-2-yl)-6-(3-methyl-piperazin-1-yl)nicotinamide] | 0.2834 | 1.7936 | 0.142
Cc1nc2c(F)cc(NC(=O)c3ccc(N4CCN5CCC[C@H]5C4)nc3)cc2o1 [Example 25, (S)-N-(4-fluoro-2-methylbenzo[d]oxa-zol-6-yl)-6-(hexa-hydropyrrolo[1,2-a]pyrazin-2-(1H)-yl)nicotinamide] | 0.5694 | 1.6652 | 0.382
